Measured values: ChEMBL document CHEMBL3797025, “Spirooxadiazoline oxindoles with promising in vitro antitumor activities” (Medchemcomm, 2016)
Activity calls are given as the source filed them. No cut-off for these calls is given here.

How the values were obtained:
[1] = Antiproliferative activity against human p53 +/+ HCT116 cells measured after 72 hrs by MTS assay; format: functional; details: HCT-116, 72 h
[2] = Antiproliferative activity against human p53 -/- HCT116 cells measured after 72 hrs by MTS assay; format: functional; details: HCT-116, 72 h
[3] = Antiproliferative activity against human SW620 cells expressing P53 mutant measured after 72 hrs by MTS assay; format: functional; details: SW-620, 72 h
HepG2 = experiment: Antiproliferative activity against human HepG2 cells expressing wild-type P53 measured after 72 hrs by MTS assay; format: functional; details: HepG2, 72 h
HCT-116 [4] = experiment: Induction of apoptosis in human p53 +/+ HCT116 cells assessed as activation of caspase3 at 5 or 10 uM after 24 hrs by Caspase-Glo 3/7 assay; format: functional, cell-based
[5] = Half life in Sprague-Dawley rat liver microsomes at 37 degC in presence of NADPH generating system by HPLC analysis; format: ADME
[6] = biological target: Cellular tumor antigen p53 (Homo sapiens) (UniProt P04637); experiment: Induction of p53 phosphorylation at serine-15 in human p53 +/+ HCT 116 cells bat 5 or 10 uM after 24 hrs by western blot analysis; format: cell-based
Sequence of Cellular tumor antigen p53 (Homo sapiens) (P04637 whole entry, looked up): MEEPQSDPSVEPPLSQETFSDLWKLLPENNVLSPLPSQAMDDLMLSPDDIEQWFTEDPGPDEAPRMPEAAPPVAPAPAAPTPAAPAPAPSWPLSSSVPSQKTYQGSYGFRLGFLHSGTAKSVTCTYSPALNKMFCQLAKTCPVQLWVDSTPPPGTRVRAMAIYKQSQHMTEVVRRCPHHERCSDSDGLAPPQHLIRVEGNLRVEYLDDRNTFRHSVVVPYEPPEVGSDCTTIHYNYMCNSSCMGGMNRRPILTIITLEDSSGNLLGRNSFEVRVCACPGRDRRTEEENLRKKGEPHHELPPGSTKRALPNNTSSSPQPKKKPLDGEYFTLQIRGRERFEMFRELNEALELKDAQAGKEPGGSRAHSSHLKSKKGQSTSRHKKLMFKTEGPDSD

[7] = Metabolic stability at human plasma assessed as compound degradation at 37 degC after 72 hrs by HPLC analysis; format: ADME, cell-free; details: read-out: Drug degradation
[8] = Chemical stability in phosphate buffer at pH 7.4 and 37 degC measured for 3 days by HPLC analysis; format: physicochemical; details: pH 7.4, 72 h
HCT-116 [9] = experiment: Induction of apoptosis in human p53 +/+ HCT116 cells assessed as activation of caspase7 at 5 or 10 uM after 24 hrs by Caspase-Glo 3/7 assay; format: functional, cell-based
HCT-116 [10] = experiment: Induction of apoptosis in human p53 +/+ HCT116 cells assessed as increase in PARP cleavage at 5 or 10 uM after 24 hrs by western blot analysis; format: functional, cell-based

SMILES	GI50 [1] [µM]	GI50 [2] [µM]	further results
O=C1Nc2cc(Cl)ccc2[C@]12ON=C(c1ccc(Cl)cc1)N2c1ccccc1	26.5	30.6	–
O=C1Nc2ccc(Br)cc2[C@]12ON=C(c1cccc(Cl)c1)N2c1ccc(F)c(Cl)c1	6.6	7.2	GI50 [3]: 6.7 µM; GI50 (HepG2): 4 µM
O=C1Nc2ccc(Cl)cc2[C@]12ON=C(c1ccccc1)N2c1ccc(Cl)cc1	27.1	27	–
O=C1Nc2ccc(Br)cc2[C@]12ON=C(c1cccc(Cl)c1)N2c1cccc(Cl)c1F	1.7	2	GI50 [3]: 2 µM; GI50 (HepG2): 1.2 µM
O=C1Nc2ccc(Br)cc2[C@]12ON=C(c1cccc(Cl)c1F)N2c1cccc(Cl)c1	3.2	4.4	GI50 [3]: 3.5 µM; GI50 (HepG2): 2.5 µM
O=C1Nc2ccccc2[C@]12ON=C(c1cccc(Cl)c1)N2c1cccc(Cl)c1	32.6	–	–
O=C1Nc2ccccc2[C@]12ON=C(c1cccc(Cl)c1)N2c1ccc(Cl)cc1	38.4	–	–
O=C1Nc2cc(Cl)ccc2[C@]12ON=C(c1ccc(Cl)cc1)N2c1cccc(Cl)c1	20.2	–	–
O=C1Nc2ccc(Br)cc2[C@]12ON=C(c1ccccc1)N2c1cccc(Cl)c1	4.7	7.5	GI50 [3]: 4.2 µM; GI50 (HepG2): 3.5 µM
O=C1Nc2ccc(Br)cc2[C@]12ON=C(c1cccc(Br)c1)N2c1cccc(Br)c1	3.2	6	GI50 [3]: 3.7 µM; GI50 (HepG2): 2.2 µM
O=C1Nc2ccc(Cl)cc2[C@]12ON=C(c1cccc(Cl)c1)N2c1ccc(Cl)cc1	21.3	21.8	–
O=C1Nc2ccc(Cl)cc2[C@]12ON=C(c1ccccc1)N2c1cccc(Cl)c1	26.4	41.6	–
O=C1Nc2ccccc2[C@]12ON=C(c1ccc(Cl)cc1)N2c1ccc(Cl)cc1	31.2	–	–
O=C1Nc2cc(Cl)ccc2[C@]12ON=C(c1ccccc1)N2c1ccccc1	28.4	35.5	–
Cc1ccc(C2=NO[C@@]3(C(=O)Nc4cc(Cl)ccc43)N2c2ccccc2)cc1	50.6	–	–
COc1ccc(C2=N[C@@H](c3ccc(Cl)cc3)[C@@H](c3ccc(Cl)cc3)N2C(=O)N2CCNC(=O)C2)c(OC(C)C)c1 [NUTLIN-3]	4	47.8	–

SMILES	GI50 [1] [µM]	GI50 [2] [µM]	further results
O=C1Nc2ccc(Br)cc2[C@]12ON=C(c1ccccc1)N2c1ccc(Cl)cc1	21.9	25.8	–
O=C1Nc2ccc(Cl)cc2[C@]12ON=C(c1ccc(Cl)cc1)N2c1cccc(Cl)c1	25.6	29	–
O=C1Nc2ccc(Br)cc2[C@]12ON=C(c1cccc(Cl)c1)N2c1cccc(Cl)c1	2	2.9	Activity (HCT-116 [4]): Active; half-life [5]: 33.5 min; Activity [6]: inactive; metabolised at 72 h [7]: 38%; Stability [8]: Stable; GI50 [3]: 2.1 µM; Activity (HCT-116 [9]): Active; Activity (HCT-116 [10]): Active; GI50 (HepG2): 2.1 µM
O=C1Nc2cc(Cl)ccc2[C@]12ON=C(c1cccc(Cl)c1)N2c1cccc(Cl)c1	6.6	7.8	GI50 [3]: 6.7 µM; GI50 (HepG2): 4.4 µM
O=C1Nc2ccc(Br)cc2[C@]12ON=C(c1ccc(Cl)cc1)N2c1cccc(Cl)c1	7.7	12.3	GI50 [3]: 8 µM; GI50 (HepG2): 4.1 µM
O=C1Nc2ccc(Cl)cc2[C@]12ON=C(c1ccccc1)N2c1ccccc1	39.1	–	–
O=C1Nc2ccc(Cl)cc2[C@]12ON=C(c1cccc(Cl)c1)N2c1cccc(Cl)c1	4.6	6.8	GI50 [3]: 3.9 µM; GI50 (HepG2): 3.3 µM
O=C1Nc2ccccc2[C@]12ON=C(c1ccccc1)N2c1ccc(Cl)cc1	54.5	–	–
O=C1Nc2cc(Cl)ccc2[C@]12ON=C(c1ccccc1)N2c1ccc(Cl)cc1	31.8	–	–
O=C1Nc2ccccc2[C@]12ON=C(c1ccccc1)N2c1ccc(F)cc1	99.6	–	–
O=C1Nc2cc(Cl)ccc2[C@]12ON=C(c1cccc(Cl)c1)N2c1ccc(Cl)cc1	28.7	–	–
O=C1Nc2ccccc2[C@]12ON=C(c1ccccc1)N2c1cccc(Cl)c1	70.1	–	–
O=C1Nc2cc(Cl)ccc2[C@]12ON=C(c1ccc(Cl)cc1)N2c1ccc(Cl)cc1	13.2	–	–
O=C1Nc2ccc(Br)cc2[C@]12ON=C(c1ccccc1)N2c1ccccc1	13.5	–	–
O=C1Nc2ccc(Cl)cc2[C@]12ON=C(c1ccc(Cl)cc1)N2c1ccc(Cl)cc1	17.6	18	–
O=C1Nc2ccccc2[C@]12ON=C(c1ccc(Cl)cc1)N2c1cccc(Cl)c1	33.7	–	–
